Assay results: patent publication US20210353624A1, “METHOD OF TREATING CANCER WITH TELOTRISAT OR A PRODRUG THEREOF” (TerSera Therapeutics LLC, priority 2020, published 2021)

Assays:
[1] = test system: human intrahepatic CCA cells CCLP-1; experiment: Animal survival in CCLP-1 peritoneal dissemination model; format: in vivo, NOD/SCID mice; conditions: two weeks therapy: gemcitabine 50 mg/kg 2×wk, cisplatin 2.5 mg/kg 2×wk, nab-paclitaxel 5 mg/kg 2×wk, telotristat ethyl 100 mg/kg 5×wk, controls 47 days
Description: (§11) The human intrahepatic CCA cells CCLP-1 were cultured in DMEM containing 10% FBS. Animal survival was studied in a peritoneal dissemination model, and a tumor growth study was performed in subcutaneous xenografts using 4-6 weeks old female NOD/SCID mice by injecting 10×10^6 CCLP-1 cells per mouse. Ten days after tumor cell injection, mice were randomized (n=4-7) to receive PBS (control), gemcitabine (50 mg/kg, 2×wk), cisplatin (2.5 mg/kg, 2×wk survival study, 1×wk tumor growth study), nab-paclitaxel (5 mg/kg, 2×wk) or telotristat ethyl (100 mg/kg, 5×wk), for two weeks. In the survival study, mice were monitored daily and euthanized when moribund, and survival was measured from the first day of treatment until death. In the tumor growth study, tumor size was measured twice per week and tumor volume was measured using the formula V=½ (L×W2, with L=length and W=width). Comparative statistics utilized one-way ANOVA, Student's t-test and logrank methods.

5-HT = experiment: Biomarker changes after TE initiation (TELEACE): 5-HT; format: in vivo, human; conditions: n=22
Description: (§1) This example provides the effects of telotristat ethyl treatment on selected patient biomarkers (i.e., u5-HIAA; CgA; 5-HT; and NT-proBNP) in the retrospective, single arm study of Example 4.
(§2) The average (SD) duration of documented TE treatment was 12.0 (7.3) months with a median (IQR) of 9.0 (6.8, 15.2) months. In many cases, a patient received a TE dosage of 250 mg three times per day.
(§3) The continuous measures of biomarker values pre- and post-TE initiation were described using mean, SD, median, and IQR. The biomarkers were assessed only among patients with complete biomarker assessment results in both pre-TE and post-TE initiation periods. A Wilcoxon signed rank test was used to calculate P-values for the mean change in biomarker value.
(§4) Patients with reported biomarker values below, at, or above normal range in pre-TE and post-TE initiation periods were described using proportions and frequencies. The biomarkers were assessed only among patients with complete biomarker assessment results in both pre-TE and post-TE initiation periods. McNemar's test was used to calculate P-values for the differences in paired proportions of patients with values above the upper limit of normal.
(§5) To evaluate the relationship between the change in biomarker values (i.e., u5-HIAA; CgA; 5-HT) and the change in tumor progression between the pre- and post-TE periods, Pearson's correlation coefficient was used to assess the correlation between biomarker assessments and tumor sizes and to derive the associated P-values. The correlations were assessed only among patients with complete biomarker assessment results in both pre-TE and post-TE initiation periods. The relationship between biomarker values and tumor sizes during pre-TE and post-TE initiation period was presented using scatterplots.
(§6) For the biomarker results below, the pre-TE initiation period is defined as 12 months before the index date (initiation of TE). The assessment closest to the index date during the pre-TE period was reported for each biomarker.
(§7) The post-TE initiation period is defined as a period from index date to the earlier of end of treatment with TE or date of chart abstraction. The assessment closest to the date of chart abstraction during the post-TE period was reported for each biomarker.
(§8) The data includes patients with reported biomarker values, units, and laboratory ranges during pre- and post-TE initiation periods. It excludes patients who had different biomarker units or laboratory ranges reported pre- and post-TE initiation.
(§9) The normal range was defined by reported laboratory lower limit of normal and upper limit of normal.
The Wilcoxon signed rank test was used to calculate P-values for the mean change in biomarker values pre- and post-TE initiation.
(§10) Table 5-4 is based on patients who had complete biomarker assessment results (u5-HIAA: N=22; 5-HT: N=22) in both pre-TE and post-TE initiation periods. Correlation analysis was not conducted for CgA and NT-proBNP due to small sample sizes for CgA (n=15) and NT-proBNP (n=2). Pearson's correlation coefficient was used to assess the correlation between biomarker assessments and tumor sizes and to derive the associated P-values. Values have been converted to mg/24 hours based on the following conversion rate: […].

[2] = test system: human intrahepatic CCA cells CCLP-1; experiment: Tumor growth study in CCLP-1 subcutaneous xenografts; format: in vivo, NOD/SCID mice
Description: as §11

[3] = Changes in carcinoid syndrome symptoms, body weight and ECOG Performance Status after TE initiation (TELEACE); format: in vivo, human
Description: Time to tumor progression was defined as the time from telotristat ethyl initiation to the first documented tumor progression in the medical chart. […] Progression-free survival (PFS) was defined as the time from telotristat ethyl initiation to tumor progression or death. […] Physician-assessed changes in body weight, Eastern Cooperative Oncology Group (ECOG) Performance Status, and CS symptoms including diarrhea, flushing, abdominal pain, nausea and ascites were abstracted from medical charts before and after telotristat ethyl initiation. In order to evaluate the effect of telotristat ethyl treatment on secondary clinical outcomes, analyses were conducted in the overall population and in a subgroup of patients who had the same documented non-telotristat ethyl neuroendocrine tumor treatment before and after telotristat ethyl initiation. Descriptive statistics summarized patient demographic and clinical characteristics, and changes in body weight and ECOG Performance Status after telotristat ethyl treatment initiation. Kaplan-Meier analyses estimated median time to tumor progression and median PFS. Chi-square test evaluated changes in documented CS symptoms (improved vs same/worsened) before and after telotristat ethyl initiation. All analyses were performed using SAS version 9.4 (SAS Institute, Cary, N.C., USA). To evaluate the change in CS symptoms, weight, and ECOG performance status between the pre- and post-TE periods, patients with documented CS symptoms (i.e., abdominal pain, ascites, diarrhea, flushing, nausea) pre-TE initiation were described using proportions and frequencies. The change in documented CS symptoms, weight, and ECOG performance status after TE Initiation (i.e., improved/increased, stayed the same/remained unchanged, worsened/decreased) were also described using proportions and frequencies. P-values were calculated using Chi-square test for equal proportions for change in CS symptoms (i.e., proportion of patients with improved vs. stayed the same/worsened CS symptoms).

CgA = experiment: Biomarker changes after TE initiation (TELEACE): CgA; format: in vivo, human; conditions: n=15
Description: as §1, §2, §4, §6, §7, §8, §9
McNemar's test could not be performed because all patients had CgA value above normal range pre-TE initiation.

u5-HIAA = experiment: Biomarker changes after TE initiation (TELEACE): u5-HIAA; format: in vivo, human; conditions: n=22
Description: as §1, §2, §3, §4, §5, §6, §7, §8, §9
The values in Table 5-1 have been converted to mg/24 hours based on the following conversion rate: […]. The Wilcoxon signed rank test was used to calculate P-values for the mean change in biomarker values pre- and post-TE initiation.
as §10

Structure (SMILES): CCOC(=O)[C@@H](N)Cc1ccc(-c2cc(O[C@H](c3ccc(Cl)cc3-n3ccc(C)n3)C(F)(F)F)nc(N)n2)cc1 [telotristat ethyl, (S)-ethyl 2-amino-3-(4-(2-amino-6-((R)-1-(4-chloro-2-(3-methyl-1H-pyrazol-1-yl)phenyl)-2,2,2-trifluoroethoxy)pyrimidin-4-yl)phenyl)propanoate]
- animal survival [1]: 52 days
- 5-HT Measurement (ng/24 hours) Post-TE Initiation, Median (IQR) (5-HT; IQR 320.0, 700.0, pre-TE 459.5 (389.0, 701.0)): 399.5 ng/24 hours
- 5-HT Below normal range Post-TE, n (%) (5-HT; pre-TE 0 (0)): 0 (0) n (%)
- 5-HT At normal range Post-TE, n (%) (5-HT; pre-TE 1 (4.5)): 2 (9.1) n (%)
- 5-HT Above normal range Post-TE, n (%) (5-HT; pre-TE 21 (95.5), P=0.317): 20 (90.9) n (%)
- 5-HT Measurement (ng/24 hours) Post-TE Initiation, Mean ± SD (5-HT; pre-TE 648.9 ± 448.1, P=0.026): 533.5 ± 329.2 ng/24 hours
- tumor weight at the completion of therapy ([2]; controls 0.187 g): 0.091 g
- net tumor growth ([2]; gemcitabine 50 mg/kg 2×wk, cisplatin 2.5 mg/kg 1×wk, nab-paclitaxel 5 mg/kg 2×wk, telotristat ethyl 100 mg/kg 5×wk, two weeks, controls 199 mm^3): 93 mm^3
- Body weight and ECOG Performance Status after telotristat ethyl ([3]; overall population and same NET treatment subgroup): improved or unchanged for most patients
- patients with improvement in nausea after TE initiation ([3]; overall population, n=41): 78%
- patients with improvement in abdominal pain after TE initiation ([3]; overall population, n=69): 81%
- patients with improvement in flushing after TE initiation ([3]; overall population, n=88): 81%
- patients with improvement in diarrhea after TE initiation ([3]; overall population, n=133): 85%
- patients with CgA above normal range pre-TE who had normal CgA value post-TE initiation (CgA): ~30%
- CgA At normal range Post-TE, n (%) (CgA; pre-TE 0 (0)): 4 (26.7) n (%)
- CgA Below normal range Post-TE, n (%) (CgA; pre-TE 0 (0)): 0 (0) n (%)
- CgA Above normal range Post-TE, n (%) (CgA; pre-TE 15 (100.0)): 11 (73.3) n (%)
- u5-HIAA Below normal range Post-TE, n (%) (u5-HIAA; pre-TE 0 (0)): 0 (0) n (%)
- u5-HIAA At normal range Post-TE, n (%) (u5-HIAA; pre-TE 1 (4.5)): 2 (9.1) n (%)
- u5-HIAA Above normal range Post-TE, n (%) (u5-HIAA; pre-TE 21 (95.5), P=0.317): 20 (90.9) n (%)
- u5-HIAA Measurement (mg/24 hours) Post-TE Initiation, Median (IQR) (u5-HIAA; pre-TE 42.0 (25.0, 65.0)): 25.0 (16.0, 44.0) mg/24 hours
- u5-HIAA Measurement (mg/24 hours) Post-TE Initiation, Mean ± SD (u5-HIAA; pre-TE 72.5 ± 98.0, P<0.001): 43.6 ± 54.7 mg/24 hours
